Consider 16 compounds from patent publication US4613598A, “Piperazine derivatives and their acid addition salts” (Mitsubishi Chemical Industries Limited, priority 1984, dated 1986).

Structures can show the parent of a compound that is named as a salt.

Data set [1] relates to spontaneous hypertensive rats. The data set can be described thus: Hypotensive activity in non-narcotized, heart-catheterized spontaneous hypertensive rats. The data set is classed as in vivo. The settings on record: Rattus norvegicus, oral, lowest blood pressure during 6 hours after administration, read-out: Hypotensive ratio. As to the method:
Hypotensive activity As the experimental animal, spontaneous hypertensive rats 5 to 7 months after birth with a body weight of 300 to 370 g were used. The blood pressure and the heart beat of the non-narcotized, heart-catheterized rats were operatively determined to calculate the averages in blood pressure and heart beat prior to the administration of the present compound. Successively during 6 hours after orally administering the present compound, the blood pressure and the heart beat were determined to calculate the hypotensive ratio by the following formula: [formula] wherein X is the average in blood pressure before administration; and Y is the value of the lowest blood pressure after the administration.

The nature of data set [2]: Acute toxicity (LD50, Litchfield-Wilcoxon method), oral administration to mouse. The conditions noted are these: in vivo. Here is the method: The present compound was orally administered to mouse and the acute toxicity value (LD50) was calculated according to Litchfield-Wilcoxonmethod.

For the compound `COc1ccccc1N1CCN(CCCCC(=O)c2ccc([S+](C)[O-])c(NC(N)=O)c2)CC1` (centres unmarked) [Compound No. 35, 5-[5-[4-(2-methoxyphenyl)-1-piperazinyl]valeryl]-2-methylsulfinyl-N-carbamoylaniline], in data set [1], the inhibition in vivo at 0.3 mg/kg stood at 16.5%, the inhibition in vivo at 1 mg/kg came out at 16.1%, the inhibition in vivo at 3 mg/kg amounted to 25.6% and the inhibition in vivo at 10 mg/kg was 47.9%. The compound further registered an LD50 in data set [2] greater than 3000 mg/kg.

`COc1ccccc1N1CCN(CCCCC(=O)c2ccc(SC)c(NC(N)=O)c2)CC1` [Compound No. 34, 5-[5-[4-(2-methoxyphenyl)-1-piperazinyl]valeryl]-2-methylthio-N-carbamoylaniline]: in data set [1], the inhibition in vivo at 1 mg/kg was found to be 17.6%, the inhibition in vivo at 3 mg/kg was 28.9% and the inhibition in vivo at 10 mg/kg was 39.9%.

Consider `COc1ccccc1N1CCN(CCCCC(=O)c2ccc3c(c2)NC(=O)CCO3)CC1` [Compound No. 41, 7-[5-[4-(2-methoxyphenyl)-1-piperazinyl]valeryl]-2,3,4,5-tetrahydro-1,5-benzoxazepine-4-one], for which, in data set [1], the inhibition in vivo at 0.3 mg/kg was 25.9%, the inhibition in vivo at 1 mg/kg is 33% and the inhibition in vivo at 3 mg/kg worked out at 35.6%.

As to `O=C(O)c1cc(C(O)CCCCN2CCN(c3ccccn3)CC2)ccc1O` (centres unmarked) [Compound No. 17, 5-[5-[4-(2-pyridyl)-1-piperazinyl]-1-hydroxypentyl]salicylic acid], in data set [1], the inhibition in vivo at 3 mg/kg stood at 21.1% and the inhibition in vivo at 10 mg/kg worked out at 15.7%.

Take `COc1ccc(C(=O)CCCCN2CCN(c3ccccc3OC)CC2)cc1NC(N)=O` [Compound No. 26, 5-[5-[4-(2-methoxyphenyl)-1-piperazinyl]valeryl]-2-methoxy-N-carbamoylaniline]: the inhibition in vivo at 3 mg/kg in data set [1] was found to be 31.8%. The compound further had an LD50 in data set [2] of 2700 mg/kg.

Take `NC(=O)c1cc(C(=O)CCCCN2CCN(c3ccccc3Cl)CC2)ccc1O` [Compound No. 13, 5-[5-[4-(2-chlorophenyl)-1-piperazinyl]valeryl]salicylamide]: in data set [1], the inhibition in vivo at 3 mg/kg was 19.7% and the inhibition in vivo at 10 mg/kg stood at 16.5%.

On to `COc1ccccc1N1CCN(CCCCC(=O)c2ccc(OC)c(S(N)(=O)=O)c2)CC1` [Compound No. 2, 5-[5-[4-(2-methoxyphenyl)-1-piperazinyl]valeryl]-2-methoxy-benzenesulfonamide dihydrochloride], for which, in data set [1], the inhibition in vivo at 0.3 mg/kg was 10.5%, the inhibition in vivo at 1 mg/kg is 34.6% and the inhibition in vivo at 3 mg/kg came out at 19.7%.

For `COc1ccc(C(=O)CCCCN2CCN(c3ccccc3OC)CC2)cc1NS(C)(=O)=O` [Compound No. 29, 5-[5-[4-(2-methoxyphenyl)-1-piperazinyl]valeryl]-2-methoxy-N-methanesulfonylaniline dihydrochloride], in data set [1], the inhibition in vivo at 1 mg/kg came out at 22.8% and the inhibition in vivo at 3 mg/kg stood at 37.3%.

With `COc1ccccc1N1CCN(CCCCC(=O)c2ccc([S+](C)[O-])c(S(N)(=O)=O)c2)CC1` (centres unmarked) [Compound No. 7, 5-[5-[4-(2-methoxyphenyl)-1-piperazinyl]valeryl]-2-methylsulfinyl-benzenesulfonamide], in data set [1], the inhibition in vivo at 1 mg/kg was found to be 8.9%, the inhibition in vivo at 3 mg/kg is 17.5% and the inhibition in vivo at 10 mg/kg stood at 31.3%.

On to `COc1ccc(C(O)CN2CCN(c3ccccc3)CC2)cc1S(N)(=O)=O` (centres unmarked) [Control 1, reference compound], for which, in data set [1], the inhibition in vivo at 1 mg/kg was found to be 10.5% and the inhibition in vivo at 10 mg/kg was 2.5%.

In the case of `NC(=O)c1cc(C(=O)CN2CCN(c3ccccc3)CC2)ccc1O` [Control 2, 5[2(4-phenyl-1-piperazinyl)acetyl]salicylamide, reference compound], in data set [1], the inhibition in vivo at 1 mg/kg worked out at 9.9%, the inhibition in vivo at 3 mg/kg came to 13.7% and the inhibition in vivo at 10 mg/kg came to 6.6%.

For `COc1ccccc1N1CCN(CCCCC(=O)c2ccc(O)c(NC(C)=O)c2)CC1` [Compound No. 23, 5-[5-[4-(2-methoxyphenyl)-1-piperazinyl]valeryl]-2-hydroxyacetanilide], in data set [1], the inhibition in vivo at 3 mg/kg was 36.5%.

As to `COc1ccccc1N1CCN(CCCCC(=O)c2ccc(SC)c(S(N)(=O)=O)c2)CC1` [Compound No. 6, 5-[5-[4-(2-methoxyphenyl)-1-piperazinyl]valeryl]-2-methylthio-benzenesulfonamide], in data set [1], the inhibition in vivo at 1 mg/kg stood at 16.1%, the inhibition in vivo at 3 mg/kg was found to be 24.3% and the inhibition in vivo at 10 mg/kg stood at 23%. This compound displayed an LD50 in data set [2] greater than 3000 mg/kg.

Turning to `COc1ccc(C(O)CN2CCN(c3ccccc3)CC2)cc1NC(N)=O` (centres unmarked) [Control 3, reference compound], in data set [1], the inhibition in vivo at 3 mg/kg amounted to 5.6% and the inhibition in vivo at 10 mg/kg turned out to be 9.4%.

Turning to `O=C1CSc2ccc(C(=O)CCCN3CCN(c4ccccn4)CC3)cc2N1` [Compound No. 49], in data set [1], the inhibition in vivo at 1 mg/kg came out at 10.9% and the inhibition in vivo at 3 mg/kg was 45.7%.

Take `COc1ccccc1N1CCN(CCCCC(=O)c2ccc(O)c(C(N)=O)c2)CC1` [Compound No. 12, 5-[5-[4-(2-methoxyphenyl)-1-piperazinyl]valeryl]-salicylamide]: the inhibition in vivo at 3 mg/kg in data set [1] amounted to 35.2%. The same compound had an LD50 in data set [2] greater than 3000 mg/kg.
